For 13 compounds, pIC50 results are on record in ChEMBL document CHEMBL1127286, “Quantitative structure-activity relationships study of endothelin-1 analogs” (Bioorg Med Chem Lett, 1994).

Assay [1] has as its target T1, Endothelin-1 receptor (Rattus norvegicus) (UniProt P26684).
T1 sequence (whole entry): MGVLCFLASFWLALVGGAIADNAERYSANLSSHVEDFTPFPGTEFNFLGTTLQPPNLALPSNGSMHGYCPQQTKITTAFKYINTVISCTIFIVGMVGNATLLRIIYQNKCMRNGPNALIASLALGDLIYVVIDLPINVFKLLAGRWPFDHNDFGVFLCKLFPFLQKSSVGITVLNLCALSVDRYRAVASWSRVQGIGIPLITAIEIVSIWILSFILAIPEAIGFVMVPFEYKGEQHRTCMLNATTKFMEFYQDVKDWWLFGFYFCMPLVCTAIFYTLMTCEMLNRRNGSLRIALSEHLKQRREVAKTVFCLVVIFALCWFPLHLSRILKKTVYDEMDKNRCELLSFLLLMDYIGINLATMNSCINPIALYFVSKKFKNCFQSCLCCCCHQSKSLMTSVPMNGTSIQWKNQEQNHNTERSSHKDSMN
The assay can be described thus: Concentration required to produce 50% inhibition of binding against ET A receptor obtained from rat thoracic aortic membrane.

Assay [2] concerns the target T2, Endothelin receptor type B (Rattus norvegicus) (UniProt P21451).
T2 sequence (whole entry): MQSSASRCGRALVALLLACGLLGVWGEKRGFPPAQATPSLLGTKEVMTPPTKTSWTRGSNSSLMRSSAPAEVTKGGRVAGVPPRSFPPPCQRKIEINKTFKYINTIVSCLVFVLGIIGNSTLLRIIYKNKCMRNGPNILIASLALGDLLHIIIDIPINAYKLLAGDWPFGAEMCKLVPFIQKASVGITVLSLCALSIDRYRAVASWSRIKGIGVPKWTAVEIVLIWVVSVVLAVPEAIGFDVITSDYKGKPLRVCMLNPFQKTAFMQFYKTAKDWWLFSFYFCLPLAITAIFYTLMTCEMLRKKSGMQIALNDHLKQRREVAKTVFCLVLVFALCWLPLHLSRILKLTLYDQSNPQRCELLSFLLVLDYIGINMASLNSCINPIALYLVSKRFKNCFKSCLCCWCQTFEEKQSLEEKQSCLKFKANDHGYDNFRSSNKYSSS
Description: Concentration required to produce 50% inhibition of binding against ET B receptor obtained from rat brain membrane.

Broadly, the pIC50 is the negative decadic logarithm of the IC50, by convention in mol/L. Lower therefore signals a large IC50. `CC[C@@H](C)[C@H](NC(=O)[C@H](CC(=O)O)NC(=O)[C@H](CC(C)C)NC(=O)[C@H](Cc1c[nH]cn1)NC(=O)[C@H](CS)NC(=O)[C@H](Cc1ccccc1)NC(=O)[C@H](Cc1ccc(O)cc1)NC(=O)[C@@H](NC(=O)[C@H](CS)NC(=O)[C@H](CCC(=O)O)NC(=O)[C@H](CCCCN)NC(=O)[C@H](CC(=O)O)NC(=O)[C@H](CCSC)NC(=O)[C@H](CC(C)C)NC(=O)[C@H](CO)NC(=O)[C@H](CO)NC(=O)[C@H](CS)NC(=O)[C@H](CO)NC(=O)[C@@H](N)CS)C(C)C)C(=O)N[C@@H](C)C(=O)N[C@@H](Cc1c[nH]c2ccccc12)C(=O)O`: the negative logarithm of the IC50 (pIC50) in assay [1] was determined as 7.53; in assay [2], 9.4.
For `CC[C@@H](C)[C@H](NC(=O)[C@H](CC(=O)O)NC(=O)[C@H](CC(C)C)NC(=O)[C@H](Cc1c[nH]cn1)NC(=O)[C@H](CS)NC(=O)[C@H](Cc1ccccc1)NC(=O)[C@H](Cc1ccc(O)cc1)NC(=O)[C@@H](NC(=O)[C@H](CS)NC(=O)[C@H](CCC(=O)O)NC(=O)[C@H](CCCCN)NC(=O)[C@H](CC(=O)O)NC(=O)[C@H](CCSC)NC(=O)[C@H](CC(C)C)NC(=O)[C@H](CO)NC(=O)[C@H](CO)NC(=O)[C@H](CS)NC(=O)[C@H](CO)NC(=O)[C@@H](N)CS)C(C)C)C(=O)N[C@H](Cc1c[nH]cn1)C(=O)N[C@@H](Cc1c[nH]c2ccccc12)C(=O)O` the same measures were 6.13 and 7.55.
As for `CC[C@@H](C)[C@H](NC(=O)[C@H](CC(=O)O)NC(=O)[C@H](CC(C)C)NC(=O)[C@H](Cc1c[nH]cn1)NC(=O)[C@H](CS)NC(=O)[C@H](Cc1ccccc1)NC(=O)[C@H](Cc1ccc(O)cc1)NC(=O)[C@@H](NC(=O)[C@H](CS)NC(=O)[C@H](CCC(=O)O)NC(=O)[C@H](CCCCN)NC(=O)[C@H](CC(=O)O)NC(=O)[C@H](CCSC)NC(=O)[C@H](CC(C)C)NC(=O)[C@H](CO)NC(=O)[C@H](CO)NC(=O)[C@H](CS)NC(=O)[C@H](CO)NC(=O)[C@@H](N)CS)C(C)C)C(=O)N[C@H](C(=O)N[C@@H](Cc1c[nH]c2ccccc12)C(=O)O)c1ccccc1`, the pIC50 came to 8.89 in assay [1] and 9.76 in assay [2].
Compound `CC[C@@H](C)[C@H](NC(=O)[C@H](CC(=O)O)NC(=O)[C@H](CC(C)C)NC(=O)[C@H](Cc1c[nH]cn1)NC(=O)[C@H](CS)NC(=O)[C@H](Cc1ccccc1)NC(=O)[C@H](Cc1ccc(O)cc1)NC(=O)[C@@H](NC(=O)[C@H](CS)NC(=O)[C@H](CCC(=O)O)NC(=O)[C@H](CCCCN)NC(=O)[C@H](CC(=O)O)NC(=O)[C@H](CCSC)NC(=O)[C@H](CC(C)C)NC(=O)[C@H](CO)NC(=O)[C@H](CO)NC(=O)[C@H](CS)NC(=O)[C@H](CO)NC(=O)[C@@H](N)CS)C(C)C)C(=O)N[C@H](C(=O)N[C@@H](Cc1c[nH]c2ccccc12)C(=O)O)[C@H](C)CC` gave a negative logarithm of the IC50 (pIC50) in assay [1] of 9.93.
With `CC[C@@H](C)[C@H](NC(=O)[C@H](CC(=O)O)NC(=O)[C@H](CC(C)C)NC(=O)[C@H](Cc1c[nH]cn1)NC(=O)[C@H](CS)NC(=O)[C@H](Cc1ccccc1)NC(=O)[C@H](Cc1ccc(O)cc1)NC(=O)[C@@H](NC(=O)[C@H](CS)NC(=O)[C@H](CCC(=O)O)NC(=O)[C@H](CCCCN)NC(=O)[C@H](CC(=O)O)NC(=O)[C@H](CCSC)NC(=O)[C@H](CC(C)C)NC(=O)[C@H](CO)NC(=O)[C@H](CO)NC(=O)[C@H](CS)NC(=O)[C@H](CO)NC(=O)[C@@H](N)CS)C(C)C)C(=O)N[C@H](CCC(N)=O)C(=O)N[C@@H](Cc1c[nH]c2ccccc12)C(=O)O`, the values for the pIC50 in assay [1] and in assay [2] were 5.27 and 5.59, respectively.
With `CC[C@@H](C)[C@H](NC(=O)[C@H](CC(=O)O)NC(=O)[C@H](CC(C)C)NC(=O)[C@H](Cc1c[nH]cn1)NC(=O)[C@H](CS)NC(=O)[C@H](Cc1ccccc1)NC(=O)[C@H](Cc1ccc(O)cc1)NC(=O)[C@@H](NC(=O)[C@H](CS)NC(=O)[C@H](CCC(=O)O)NC(=O)[C@H](CCCCN)NC(=O)[C@H](CC(=O)O)NC(=O)[C@H](CCSC)NC(=O)[C@H](CC(C)C)NC(=O)[C@H](CO)NC(=O)[C@H](CO)NC(=O)[C@H](CS)NC(=O)[C@H](CO)NC(=O)[C@@H](N)CS)C(C)C)C(=O)N[C@H](C)C(=O)N[C@@H](Cc1c[nH]c2ccccc12)C(=O)O`, the pIC50 worked out at 5.77 in assay [1] and 7.96 in assay [2].
As for `CC[C@@H](C)[C@H](NC(=O)[C@H](CC(=O)O)NC(=O)[C@H](CC(C)C)NC(=O)[C@H](Cc1c[nH]cn1)NC(=O)[C@H](CS)NC(=O)[C@H](Cc1ccccc1)NC(=O)[C@H](Cc1ccc(O)cc1)NC(=O)[C@@H](NC(=O)[C@H](CS)NC(=O)[C@H](CCC(=O)O)NC(=O)[C@H](CCCCN)NC(=O)[C@H](CC(=O)O)NC(=O)[C@H](CCSC)NC(=O)[C@H](CC(C)C)NC(=O)[C@H](CO)NC(=O)[C@H](CO)NC(=O)[C@H](CS)NC(=O)[C@H](CO)NC(=O)[C@@H](N)CS)C(C)C)C(=O)N[C@H](Cc1ccccc1)C(=O)N[C@@H](Cc1c[nH]c2ccccc12)C(=O)O`, the pIC50 came out at 6.07 in assay [1] and 8.6 in assay [2].
Compound `CC[C@@H](C)[C@H](NC(=O)[C@H](CC(=O)O)NC(=O)[C@H](CC(C)C)NC(=O)[C@H](Cc1c[nH]cn1)NC(=O)[C@H](CS)NC(=O)[C@H](Cc1ccccc1)NC(=O)[C@H](Cc1ccc(O)cc1)NC(=O)[C@@H](NC(=O)[C@H](CS)NC(=O)[C@H](CCC(=O)O)NC(=O)[C@H](CCCCN)NC(=O)[C@H](CC(=O)O)NC(=O)[C@H](CCSC)NC(=O)[C@H](CC(C)C)NC(=O)[C@H](CO)NC(=O)[C@H](CO)NC(=O)[C@H](CS)NC(=O)[C@H](CO)NC(=O)[C@@H](N)CS)C(C)C)C(=O)N[C@@H](C(=O)N[C@@H](Cc1c[nH]c2ccccc12)C(=O)O)[C@H](C)CC` came in with a pIC50 in assay [1] of 7.59.
In the case of `CCC[C@@H](NC(=O)[C@@H](NC(=O)[C@H](CC(=O)O)NC(=O)[C@H](CC(C)C)NC(=O)[C@H](Cc1c[nH]cn1)NC(=O)[C@H](CS)NC(=O)[C@H](Cc1ccccc1)NC(=O)[C@H](Cc1ccc(O)cc1)NC(=O)[C@@H](NC(=O)[C@H](CS)NC(=O)[C@H](CCC(=O)O)NC(=O)[C@H](CCCCN)NC(=O)[C@H](CC(=O)O)NC(=O)[C@H](CCSC)NC(=O)[C@H](CC(C)C)NC(=O)[C@H](CO)NC(=O)[C@H](CO)NC(=O)[C@H](CS)NC(=O)[C@H](CO)NC(=O)[C@@H](N)CS)C(C)C)[C@H](C)CC)C(=O)N[C@@H](Cc1c[nH]c2ccccc12)C(=O)O`, the figures for the pIC50 in assay [1] and in assay [2] were 7.6 and 10, respectively.
In the case of `CC[C@@H](C)[C@H](NC(=O)[C@H](CC(=O)O)NC(=O)[C@H](CC(C)C)NC(=O)[C@H](Cc1c[nH]cn1)NC(=O)[C@H](CS)NC(=O)[C@H](Cc1ccccc1)NC(=O)[C@H](Cc1ccc(O)cc1)NC(=O)[C@@H](NC(=O)[C@H](CS)NC(=O)[C@H](CCC(=O)O)NC(=O)[C@H](CCCCN)NC(=O)[C@H](CC(=O)O)NC(=O)[C@H](CCSC)NC(=O)[C@H](CC(C)C)NC(=O)[C@H](CO)NC(=O)[C@H](CO)NC(=O)[C@H](CS)NC(=O)[C@H](CO)NC(=O)[C@@H](N)CS)C(C)C)C(=O)N[C@@H](C(=O)N[C@@H](Cc1c[nH]c2ccccc12)C(=O)O)c1ccccc1`, the values for the pIC50 in assay [1] and in assay [2] were 6.85 and 8.6, respectively.
With `CC[C@@H](C)[C@H](NC(=O)[C@H](CC(=O)O)NC(=O)[C@H](CC(C)C)NC(=O)[C@H](Cc1c[nH]cn1)NC(=O)[C@H](CS)NC(=O)[C@H](Cc1ccccc1)NC(=O)[C@H](Cc1ccc(O)cc1)NC(=O)[C@@H](NC(=O)[C@H](CS)NC(=O)[C@H](CCC(=O)O)NC(=O)[C@H](CCCCN)NC(=O)[C@H](CC(=O)O)NC(=O)[C@H](CCSC)NC(=O)[C@H](CC(C)C)NC(=O)[C@H](CO)NC(=O)[C@H](CO)NC(=O)[C@H](CS)NC(=O)[C@H](CO)NC(=O)[C@@H](N)CS)C(C)C)C(=O)N[C@@H](C(=O)N[C@@H](Cc1c[nH]c2ccccc12)C(=O)O)C(C)C`, the pIC50 in assay [1] came out at 9; in assay [2], 9.05.
Take `CC[C@@H](C)[C@H](NC(=O)[C@H](CC(=O)O)NC(=O)[C@H](CC(C)C)NC(=O)[C@H](Cc1c[nH]cn1)NC(=O)[C@H](CS)NC(=O)[C@H](Cc1ccccc1)NC(=O)[C@H](Cc1ccc(O)cc1)NC(=O)[C@@H](NC(=O)[C@H](CS)NC(=O)[C@H](CCC(=O)O)NC(=O)[C@H](CCCCN)NC(=O)[C@H](CC(=O)O)NC(=O)[C@H](CCSC)NC(=O)[C@H](CC(C)C)NC(=O)[C@H](CO)NC(=O)[C@H](CO)NC(=O)[C@H](CS)NC(=O)[C@H](CO)NC(=O)[C@@H](N)CS)C(C)C)C(=O)N[C@@H](Cc1c[nH]c2ccccc12)C(=O)N[C@@H](Cc1c[nH]c2ccccc12)C(=O)O`: the pIC50 in assay [1] was found to be 6.71; in assay [2], 9.77.
Consider `CC[C@@H](C)[C@H](NC(=O)[C@H](CC(=O)O)NC(=O)[C@H](CC(C)C)NC(=O)[C@H](Cc1c[nH]cn1)NC(=O)[C@H](CS)NC(=O)[C@H](Cc1ccccc1)NC(=O)[C@H](Cc1ccc(O)cc1)NC(=O)[C@@H](NC(=O)[C@H](CS)NC(=O)[C@H](CCC(=O)O)NC(=O)[C@H](CCCCN)NC(=O)[C@H](CC(=O)O)NC(=O)[C@H](CCSC)NC(=O)[C@H](CC(C)C)NC(=O)[C@H](CO)NC(=O)[C@H](CO)NC(=O)[C@H](CS)NC(=O)[C@H](CO)NC(=O)[C@@H](N)CS)C(C)C)C(=O)N[C@H](CC(C)C)C(=O)N[C@@H](Cc1c[nH]c2ccccc12)C(=O)O`, for which the pIC50 in assay [1] was 7.97; in assay [2] it was 9.94.
